Here are results for 23 compounds from ChEMBL document CHEMBL1144217, “Design, synthesis and characterization of podocarpate derivatives as openers of BK channels” (Bioorg Med Chem Lett, 2008).

The target of this test is Calcium-activated potassium channel subunit alpha-1 (Homo sapiens) (UniProt Q12791). As to the kind of experiment: Activation of human BKalpha channel expressed in CHOK1 cells assessed as increase in ionic current at 30 uM relative to control. It counts as cell-based. The note with it: CHO-K1.
Chain of Calcium-activated potassium channel subunit alpha-1 (Homo sapiens) (Q12791 whole entry): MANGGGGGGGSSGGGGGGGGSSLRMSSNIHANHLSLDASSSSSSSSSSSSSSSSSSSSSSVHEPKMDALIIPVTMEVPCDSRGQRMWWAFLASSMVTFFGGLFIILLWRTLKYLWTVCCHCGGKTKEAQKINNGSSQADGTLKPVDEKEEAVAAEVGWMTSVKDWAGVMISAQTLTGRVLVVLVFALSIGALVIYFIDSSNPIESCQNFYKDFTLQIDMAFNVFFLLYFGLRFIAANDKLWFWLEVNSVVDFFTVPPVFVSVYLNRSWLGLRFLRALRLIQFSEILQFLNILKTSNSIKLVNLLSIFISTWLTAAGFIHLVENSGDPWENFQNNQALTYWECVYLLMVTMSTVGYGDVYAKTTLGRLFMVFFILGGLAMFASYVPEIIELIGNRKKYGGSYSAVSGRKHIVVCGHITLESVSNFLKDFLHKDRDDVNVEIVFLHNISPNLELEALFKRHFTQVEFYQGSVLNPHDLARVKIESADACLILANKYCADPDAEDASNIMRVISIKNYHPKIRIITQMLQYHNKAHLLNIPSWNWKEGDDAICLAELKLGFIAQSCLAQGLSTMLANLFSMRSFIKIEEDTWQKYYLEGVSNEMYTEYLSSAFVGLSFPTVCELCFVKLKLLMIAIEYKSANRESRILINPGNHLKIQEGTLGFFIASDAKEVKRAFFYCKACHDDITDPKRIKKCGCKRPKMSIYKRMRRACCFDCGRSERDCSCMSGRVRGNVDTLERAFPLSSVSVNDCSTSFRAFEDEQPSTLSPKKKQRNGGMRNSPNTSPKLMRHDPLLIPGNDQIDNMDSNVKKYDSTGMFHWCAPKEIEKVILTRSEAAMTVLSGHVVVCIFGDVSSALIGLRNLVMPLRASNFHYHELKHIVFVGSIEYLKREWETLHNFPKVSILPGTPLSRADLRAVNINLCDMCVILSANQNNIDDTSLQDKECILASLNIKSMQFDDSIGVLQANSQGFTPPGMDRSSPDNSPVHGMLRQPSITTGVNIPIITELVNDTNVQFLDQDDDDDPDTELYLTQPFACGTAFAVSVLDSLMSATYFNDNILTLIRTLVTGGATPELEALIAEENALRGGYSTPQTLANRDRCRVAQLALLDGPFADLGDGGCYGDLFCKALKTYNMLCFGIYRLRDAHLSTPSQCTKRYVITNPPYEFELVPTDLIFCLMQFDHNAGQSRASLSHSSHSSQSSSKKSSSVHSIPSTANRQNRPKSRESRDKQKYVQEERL
On to `Cc1ccccc1COc1ccc2c(c1)[C@@]1(C)CCC[C@](C)(C(=O)O)[C@@H]1CC2`, for which the Activity was found to be 88.9%.

As to `COC(=O)[C@@]1(C)CCC[C@]2(C)c3cc(O)ccc3CC[C@@H]12`, the Activity came to 118%.

For the compound `CC(C)Oc1ccc2c(c1)[C@@]1(C)CCC[C@](C)(C(=O)O)[C@@H]1CC2`, the Activity came out at 134%.

Take `CC(C)c1ccc(COc2ccc3c(c2)[C@@]2(C)CCC[C@](C)(C(=O)O)[C@@H]2CC3)cc1`: the Activity is 125%.

`C[C@]1(C(=O)O)CCC[C@]2(C)c3cc(OCc4ccc(OC(F)(F)F)cc4)ccc3CC[C@@H]12`: the Activity turned out to be 139%.

As for `CCCOc1ccc2c(c1)[C@@]1(C)CCC[C@](C)(C(=O)O)[C@@H]1CC2`, the Activity was 170%.

Turning to `C[C@]1(C(=O)O)CCC[C@]2(C)c3cc(OCc4ccc(Cl)cc4)ccc3CC[C@@H]12`, the Activity worked out at 121%.

Consider `C[C@]1(C(=O)O)CCC[C@]2(C)c3cc(OCC4CCCCC4)ccc3CC[C@@H]12`, for which the Activity was 124%.

With `C=CCOc1ccc2c(c1)[C@@]1(C)CCC[C@](C)(C(=O)O)[C@@H]1CC2`, the Activity amounted to 148%.

Take `C[C@]1(C(=O)O)CCC[C@]2(C)c3cc(OCc4ccc(C(F)(F)F)cc4)ccc3CC[C@@H]12`: the Activity was 185%.

In the case of `C[C@]1(C(=O)O)CCC[C@]2(C)c3cc(OCc4ccc(C#N)cc4)ccc3CC[C@@H]12`, the Activity is 116%.

Regarding `CC(C)(C)c1ccc(COc2ccc3c(c2)[C@@]2(C)CCC[C@](C)(C(=O)O)[C@@H]2CC3)cc1`, the Activity came out at 116%.

On to `C[C@]1(C(=O)O)CCC[C@]2(C)c3cc(OCc4ccc5ccccc5c4)ccc3CC[C@@H]12`, for which the Activity was found to be 122%.

Take `Cc1ccc(COc2ccc3c(c2)[C@@]2(C)CCC[C@](C)(C(=O)O)[C@@H]2CC3)cc1`: the Activity was determined as 151%.

Consider `C[C@]1(C(=O)O)CCC[C@]2(C)c3cc(OCc4ccccc4)ccc3CC[C@@H]12`, for which the Activity was determined as 209%.

In the case of `C[C@]1(C(=O)O)CCC[C@]2(C)c3cc(OCCCc4ccccc4)ccc3CC[C@@H]12`, the Activity came out at 244%.

In the case of `C[C@]1(C(=O)O)CCC[C@]2(C)c3cc(OCCOCc4ccccc4)ccc3CC[C@@H]12`, the Activity came out at 124%.

On to `COc1ccc2c(c1)[C@@]1(C)CCC[C@](C)(C(=O)O)[C@@H]1CC2`, for which the Activity came out at 124%.

In the case of `COC(=O)[C@@]1(C)CCC[C@]2(C)c3cc(OCCCc4ccccc4)ccc3CC[C@@H]12`, the Activity amounted to 116%.

As for `C[C@]1(C(=O)O)CCC[C@]2(C)c3cc(OCCN4CCCCC4)ccc3CC[C@@H]12`, the Activity was found to be 103%.

For `COc1ccc(COc2ccc3c(c2)[C@@]2(C)CCC[C@](C)(C(=O)O)[C@@H]2CC3)cc1`, the Activity came to 109%.

With `Cc1cc(C)cc(COc2ccc3c(c2)[C@@]2(C)CCC[C@](C)(C(=O)O)[C@@H]2CC3)c1`, the Activity was found to be 130%.

Take `C[C@]1(C(=O)O)CCC[C@]2(C)c3cc(O)ccc3CC[C@@H]12`: the Activity was 207%.
